Results: ChEMBL document CHEMBL5532698, “2,3-Dihydroquinazolin-4(1H)-ones and quinazolin-4(3H)-ones as broad-spectrum cytotoxic agents and their impact on tubulin polymerisation” (RSC Med Chem, 2024)
Active and inactive are the calls of the source. The calls are words filed in the database; no cut-off is given here.

Assays:
[1] = test system: HT-29; test: Antiproliferative activity against human HT-29 cells assessed as cell growth inhibition incubated for 72 hrs by MTT assay; type: functional
[2] = test system: U-87 MG; test: Antiproliferative activity against human U87 cells assessed as cell growth inhibition incubated for 72 hrs by MTT assay; type: functional, U-87MG ATCC
[3] = test system: MCF7; test: Antiproliferative activity against human MCF7 cells assessed as cell growth inhibition incubated for 72 hrs by MTT assay; type: functional
[4] = test system: A2780; test: Antiproliferative activity against human A2780 cells assessed as cell growth inhibition incubated for 72 hrs by MTT assay; type: functional
[5] = test system: NCI-H460; test: Antiproliferative activity against human NCI-H460 cells assessed as cell growth inhibition incubated for 72 hrs by MTT assay; type: functional
[6] = test system: A-431; test: Antiproliferative activity against human A-431 cells assessed as cell growth inhibition incubated for 72 hrs by MTT assay; type: functional
[7] = test system: DU-145; test: Antiproliferative activity against human DU-145 cells assessed as cell growth inhibition incubated for 72 hrs by MTT assay; type: functional
[8] = test system: BE(2)-C; test: Antiproliferative activity against human BE2C cells assessed as cell growth inhibition incubated for 72 hrs by MTT assay; type: functional
[9] = Antiproliferative activity against human SJG2 cells assessed as cell growth inhibition incubated for 72 hrs by MTT assay; type: functional; conditions: SJ-G2
[10] = test system: MIA PaCa-2; test: Antiproliferative activity against human MIA PaCa-2 cells assessed as cell growth inhibition incubated for 72 hrs by MTT assay; type: functional
[11] = Cytotoxicity against human MCF-10A cells assessed as cell growth inhibition incubated for 72 hrs by MTT assay; type: toxicity, cell-based
[12] = test system: HT-29; test: Antiproliferative activity against human HT-29 cells assessed as cell growth inhibition at 25 uM incubated for 72 hrs by MTT assay relative to control; type: functional
[13] = test system: U-87 MG; test: Antiproliferative activity against human U87 cells assessed as cell growth inhibition at 25 uM incubated for 72 hrs by MTT assay relative to control; type: functional, U-87MG ATCC
[14] = test system: MCF7; test: Antiproliferative activity against human MCF7 cells assessed as cell growth inhibition at 25 uM incubated for 72 hrs by MTT assay relative to control; type: functional
[15] = test system: A2780; test: Antiproliferative activity against human A2780 cells assessed as cell growth inhibition at 25 uM incubated for 72 hrs by MTT assay relative to control; type: functional
[16] = test system: NCI-H460; test: Antiproliferative activity against human NCI-H460 cells assessed as cell growth inhibition at 25 uM incubated for 72 hrs by MTT assay relative to control; type: functional
[17] = test system: A-431; test: Antiproliferative activity against human A-431 cells assessed as cell growth inhibition at 25 uM incubated for 72 hrs by MTT assay relative to control; type: functional
[18] = test system: DU-145; test: Antiproliferative activity against human DU-145 cells assessed as cell growth inhibition at 25 uM incubated for 72 hrs by MTT assay relative to control; type: functional
[19] = test system: BE(2)-C; test: Antiproliferative activity against human BE2C cells assessed as cell growth inhibition at 25 uM incubated for 72 hrs by MTT assay relative to control; type: functional
[20] = Antiproliferative activity against human SJG2 cells assessed as cell growth inhibition at 25 uM incubated for 72 hrs by MTT assay relative to control; type: functional; conditions: SJ-G2
[21] = test system: MIA PaCa-2; test: Antiproliferative activity against human MIA PaCa-2 cells assessed as cell growth inhibition at 25 uM incubated for 72 hrs by MTT assay relative to control; type: functional
[22] = Cytotoxicity against human MCF-10A cells assessed as cell growth inhibition at 25 uM incubated for 72 hrs by MTT assay relative to control; type: toxicity, cell-based
[23] = biological target: Tubulin (Homo sapiens) (UniProt P68371+Q9H4B7+P0DPH7+P68366+Q13509+Q71U36+P04350+Q3ZCM7+P07437+P68363+Q9BQE3+Q6PEY2+Q13885+Q9BVA1+Q9BUF5); test: Induction of tubulin (unknown origin) polymerization assessed as microtubule formation by measuring increase in fluorescence at 10 uM by fluorometric analysis; type: protein-complex assay

Compound | GI50 [1] | GI50 [2] | GI50 [3] | GI50 [4] | GI50 [5] | GI50 [6] | GI50 [7] | GI50 [8] | GI50 [9] | GI50 [10] | GI50 at 72 h [11] | inhibition at 25 µM [12] | inhibition at 25 µM [13] | inhibition at 25 µM [14] | inhibition at 25 µM [15] | inhibition at 25 µM [16] | inhibition at 25 µM [17] | inhibition at 25 µM [18] | inhibition at 25 µM [19] | inhibition at 25 µM [20] | other results
O=c1[nH]c(/C=C/c2ccccc2)nc2ccccc12 | 0.4 µM | 2.7 µM | 1.3 µM | 0.45 µM | 2.5 µM | 0.64 µM | 2.4 µM | 0.5 µM | 2.2 µM | 2.3 µM | 2.3 µM | > 100% | > 100% | > 100% | > 100% | > 100% | > 100% | > 100% | > 100% | > 100% | inhibition at 25 µM [21]: 96%; inhibition at 72 h, 25 µM [22]: > 100%; Activity [23]: inactive
COc1cccc(/C=C/c2nc3ccccc3c(=O)[nH]2)c1 | 0.9 µM | 10 µM | 0.47 µM | 2.6 µM | 2.2 µM | 2.6 µM | 3.9 µM | 2.1 µM | 2.8 µM | 2.9 µM | 2.2 µM | > 100% | 75% | > 100% | > 100% | > 100% | > 100% | 78% | 99% | 100% | inhibition at 25 µM [21]: 93%; inhibition at 72 h, 25 µM [22]: 95%; Activity [23]: inactive
Cc1ccc2[nH]cc(-c3nc4ccccc4c(=O)[nH]3)c2c1 | 0.39 µM | 16 µM | 0.28 µM | 1.3 µM | 3.7 µM | 0.57 µM | > 50 µM | 0.63 µM | > 50 µM | 1 µM | 1.2 µM | – | – | – | – | – | – | – | – | – | Activity ([23]; filed as activator): Active
O=C1NC(CCc2ccccc2)Nc2ccccc21 (stereo unspecified) | 3.5 µM | 19 µM | 14 µM | 3.9 µM | 12 µM | 3.6 µM | 17 µM | 3.6 µM | 16 µM | 13 µM | 14 µM | 29% | < 10% | 38% | 29% | < 10% | 14% | 27% | 19% | 16% | inhibition at 25 µM [21]: 27%; inhibition at 72 h, 25 µM [22]: 23%; Activity ([23]; filed as activator): Active
